Here are results for seven compounds from patent US20100183658A1, “Novel Compounds for Enhancing MHC Class II Therapies” (The Brigham and Women's Hospital, Inc., priority 2007, published 2010).

“Also recorded” adds a separate entry of the source. Ends that are not written are not given here. C(Compound (Ia)-maleimide) = not defined here

Data set [1] deals with T1, DR2 (Homo sapiens, UniProt P01903+P01911). Nature of the data set: Dissociation of pre-bound Alexa-488 labeled MBP peptide from DR2 followed by fluorescence polarization. Also noted: we generated DR/CLIP complexes as soluble molecules in CHO cells; CLIP peptide (of invariant chain, CD74) joined through a linker with a thrombin cleavage site (N, cleaved yes); made in house. Format: biochemical. The following applies: for displacement (dissociation) of labeled MBP peptide from DR2 by competitor: competitor 50 μM, 150 nM DR2/50 nM Alexa-488 MBP. The protocol:
We also examined whether Compound (Ia) could induce the release of a previously bound high affinity peptide from DR2 as shown in FIG. 4B. This issue is important for potential applications of this small molecule because most DR molecules are occupied by intermediate to high affinity peptides. Applicants therefore loaded the DR2 molecule with the high affinity Alexa™-488 MBP peptide during an overnight incubation and then examined if Compound (Ia) could induce dissociation of this labeled peptide. A molar excess of an unlabeled MBP peptide was added to inhibit rebinding of the labeled peptide to DR2. […] Compound (Ia) thus substantially accelerates peptide binding by creating empty DR molecules.
We then tested the concept of “self-catalyzed peptide loading” by synthesizing the MBP peptide with an N-terminal or C-terminal cysteine to which the Compound (Ia)-maleimide was linked. These peptide-Compound (Ia) compounds were purified by reverse-phase HPLC and their identity verified by mass spectrometry. Applicants then examined whether the linked Compound (Ia) group could displace a high affinity peptide from the DR2 binding site. For that purpose, we loaded DR2 (1.5 μM) with the Alexa™-488 labeled MBP peptide (500 nM) at 37° C. for 5 hours. The complex was then diluted to 150 nM DR2/50 nM Alexa™-488 and added to a 384-well plate in a volume of 40 μl.

The next data set concerns the target T2, DR2/CLIP (Homo sapiens, UniProt P01903+P01911).
T2 construct: we generated DR/CLIP complexes as soluble molecules in CHO cells; CLIP peptide (of invariant chain, CD74) joined through a linker with a thrombin cleavage site (N, cleaved yes); made in house
Nature of the data set: Competition for binding of labeled MBP peptide to DR2/CLIP in the FP assay. The conditions noted are these: 10 nM MBP-488, 100 nM DR2/CLIP, wide dose range. The protocol: Competitor peptides were tested over a wide dose range against 10 nM MBP-488 and 100 nM DR2/CLIP in the FP assay.
Compound (Ia)-glatiramer acetate compounds are characterized for their ability to compete for binding of the Alexe™-488 labeled MBP peptide to DR2 in the FP assay, as well as for their ability to inhibit presentation of the MBP peptide to human MBP specific T cell clones, as described in detail above.

Data set [2] has as its system DR2/MBP specific T cell hybridoma. As to the kind of experiment: T cell assay: IL-2 release by DR2/MBP specific T cell hybridoma, MBP (85-99) presented by MGAR cells. The following applies: MGAR cells as APC. Format: cell-based. The method, then:
Peptide presentation of MBP (85-99) to T cell hybridomas by MGAR cells was measured by IL-2 release.

For another data set, the system named is MGAR cells. Nature of the data set: Cellular assay: MBP peptide loading on MGAR cells, FACS labeling with MK16 mAb. Format: cell-based, human. The following applies: for activity relative to Compound (Ia) in loading of MBP peptide to DR2: MGAR cells, MBP peptide 1 μM, FIG. 13B, 14B. The protocol: The cells were then labeled with biotinylated MK16 Fab and streptavidin-APC and analyzed by FACS. Cells not pulsed with peptide (green line) were used as a negative control to define background labeling of MK16.
(§1) MGAR cells were incubated with MBP peptide (1 μM) in the presence of different compounds and the amount of DR2 bound peptide was determined by FACS labeling with the MK16 mAb.
as §1, §1

Data set [3] deals with T1, DR2. As to the kind of experiment: Real-time fluorescence polarization peptide binding assay (DR2/CLIP plus Alexa-488 labeled MBP peptide). Background: In fluorescence polarisation assays a small probe gives low polarisation when free and higher when bound to something large.
For data set [4] the following is noted: 20 mg daily subcutaneously over two years; cited from earlier work.
The conditions of data set [5]: DR2/TCR transgenic mice and other EAE models, from a mean score of ~4; cited from earlier work.
The next data set relates to dendritic cells. Nature of the data set: Peptide presentation by dendritic cells in vivo (MK16 labeling of draining lymph node cells). The conditions noted are these: co-administered at 50-200 μM s.c. with MBP peptide. An excerpt:
Applicants next established the higher levels of peptide presentation in the presence of Compound (Ia) in human antigen presenting cells (APCs). The goal of these experiments is to examine whether Compound (Ia) covalently linked to the MBP peptide (abbreviated as Compound (Ia)*MBP peptide) and Compound (Ia) co-administered with peptide (Compound (Ia)+MBP peptide) enhance binding to MHC-II in vivo compared to unmodified peptide. The MK16 mAb (Krogsgaard et al., 2000, J. Exp. Med., 191:1395-1412) is used to directly quantify DR2/MBP peptide complexes on the surface of dendritic cells in lymph nodes draining the s.c. injection site. Lymph nodes are dissected 24 hours following injection of peptides in PBS and cell suspensions are labeled with CD11c (dendritic cells), MK16 (DR2/MBP), and Annexin-V (exclusion of apoptotic cells) for FACS analysis. The efficacy of Compound (Ia)*MBP peptide and unmodified MBP peptide are compared at concentrations ranging from 1 to 100 μM administered s.c. in the flank in 0.2 ml of PBS. In the co-administration mode, Compound (Ia) is added to the inoculum at concentrations of 50-200 μM.

The conditions of data set [6]: mouse, in vivo. An excerpt: An important aspect of the medicinal chemistry effort is a thorough analysis of potential in vivo toxicity.
The test system of the next data set is CD4 T cell response. As to the kind of experiment: Immunization of HLA-DR4 transgenic mice with viral and tumor peptides, CD4 T cell response. Format: in vivo. The following applies: co-administered with or covalently linked to peptide. An excerpt:
HLA-DR4 transgenic mice (DRA, DRB1*0401) are used to examine whether Compound (Ib), Compound (Ia) and the other compounds enhance the CD4 T cell response following immunization with viral and tumor peptides. Mice are immunized with peptides from two human pathogens (HIV and HCV) as well as peptides from two human tumor antigens (annexin V and gp100, identified in human melanomas). Applicants have previously performed binding studies with these peptides and shown that they bind with high affinity to DR4. The T cell response is analyzed in two different assays. First, the frequency of peptide-specific T cells is analyzed in draining lymph nodes with DR4/peptide tetramers. This approach provides a quantitative readout of the induced T cell response. Second, the cytokine production profile of these T cells is determined following a 48 hour in vitro re-stimulation with the relevant peptide. The cytometric bead array technique is utilized for comprehensive definition of the cytokine repertoire. Either Compound (Ia) is co-administered with the peptide of interest in the adjuvant or peptides are utilized with a covalently linked Compound (Ia) group (or other groups, depending on which one is being tested). […] These experiments are expected to establish the in vivo efficacy of Compound (Ia) and to establish appropriate dosing and administration procedures with rapid, quantitative readouts. […]

Another data set has as its target T3, empty DR2 molecules (Homo sapiens, UniProt P01903+P01911).
T3 construct: we generated DR/CLIP complexes as soluble molecules in CHO cells; CLIP peptide (of invariant chain, CD74) joined through a linker with a thrombin cleavage site (N, cleaved yes); made in house
Nature of the data set: Association of Alexa-488 MBP peptide to empty DR2 molecules after photo-cleavage of bound peptide (FP). Format: biochemical. The following applies: photo-cleaved bound peptide, with versus without compound. From the text:
DM acts as a catalyst that accelerates peptide binding reactions and increases both the rate of peptide dissociation and association. […] Rigorous testing of this hypothesis required generation of empty DR molecules, a task that is challenging because DR molecules aggregate over time in the absence of peptide. Applicants therefore synthesized a peptide with a photo-cleavable residue (a derivative of phenylalanine), so that the binding site could be rapidly vacated by peptide cleavage. This approach has been reported for the creation of empty MHC class I molecules (Toebes et al., 2006, Nat. Med., 12:246-251). The photoreactive group [3-amino-3-(2-nitro) phenyl-propionic acid; […]] was placed at the P4 position of the peptide, close to the center of DR2 bound peptide. The peptide also carried an N-terminal DNP group for affinity isolation of the complex generated with this peptide. […] Applicants then loaded this peptide onto DR2 molecules, isolated the complex by DNP affinity chromatography, irradiated the samples at 360 nm at 4° C., added Alexa™-488 labeled MBP and tracked its association to DR2 by FP in the presence and absence of Compound (Ia). Applicants observed a striking Compound (Ia)-induced acceleration of Alexa™-488 MBP association to DR2 when the bound peptide was photo-cleaved compared to reactions with photo-cleavage but no Compound (Ia) as diagrammed in FIG. 5. […]

Turning to “MBP-C-Compound (Ia): MBP peptide with a C-terminal cysteine to which the Compound (Ia)-maleimide was linked (PGSRPHLIRLFSRDA-{C(Compound (Ia)-maleimide)}; reading uncertain; UniProt P02686 85-99, looked up, fragment)”, the “displacement (dissociation) of labeled MBP peptide from DR2 by competitor” value in the data set with DR2 [1] (listed as MBP peptide with C-terminally linked Compound (Ia)) is “more effective in displacing the labeled peptide; also recorded: more favorable”. The “competition against labeled MBP peptide for DR2/CLIP” value with DR2/CLIP is “more effective competitor than unmodified MBP peptide”. Moreover, the “IL-2 production by T cell hybridoma” value in data set [2] is “higher levels of IL-2 production”.

“MBP peptide without linked Compound (Ia): unmodified myelin basic protein (85-99) peptide that binds with high affinity to DR2 (PGSRPHLIRLFSRDA; UniProt P02686 85-99, looked up, fragment) [reference compound]”: the “displacement (dissociation) of labeled MBP peptide from DR2 by competitor” value with DR2 [1] was “slow dissociation”.

Regarding `O=C(Cc1c(C(=O)O)[nH]c2c(F)c(F)c(F)cc12)Nc1ccc(F)c(Cl)c1` [Compound (Id)], the “activity relative to Compound (Ia) in loading of MBP peptide to DR2” value (“activity relative to Compound (Ia)” for short) with MGAR cells is “higher activities than Compound (Ia)”.

For the compound `O=C(Cc1c(C(=O)O)[nH]c2c(F)c(F)c(F)cc12)Nc1ccc(Cl)c(Cl)c1` [Compound (Ib)], the “fold higher activity than Compound (Ia) in catalyzing loading of the MBP peptide to DR2” value at DR2 [3] (biochemical assay) stood at 4.2 fold. Besides, the “activity relative to Compound (Ia)” value with MGAR cells is reported as “substantially higher activity than Compound (Ia)”.

As for glatiramer acetate, in data set [4], the “reduction of relapse rate” value was 29%. Further, the “mean EAE score under treatment” value in data set [5] was ~2.

`O=C(Cc1c(C(=O)O)[nH]c2ccc(Cl)cc12)Nc1ccc(F)c(Cl)c1` [Compound (Ia)]: the “fold increase of the initial rate of peptide association” value is on record as 22 fold on DR2 [3] (neutral pH) and “more than 58 fold” on DR2 [3] (pH range from pH 4.5 to 5.75). At DR2 [3] (pH 5.2, absence of DM, compound at 109 μM (160 minutes without compound)), the “time to reach half-maximal peptide association” value was 7 min. In addition, on DR2 [3] (pH 5.2, higher compound concentrations), the “rate of peptide binding reaction compared to DM” value was “faster than in the presence of DM”. Besides, on DR2 [3] (pH range 3.75-7.0), the “pH of maximum activity” value stood at 5.25. Moreover, the “loading of peptides on dendritic cells in vivo” value in the data set on dendritic cells was “increases loading of peptides in a dose-dependent manner”. Moreover, the “acute toxicity, observation of mice” value in data set [6] is listed as “no sips of distress”. Besides, the “dissociation of previously bound high affinity labeled MBP peptide from DR2” value at DR2 [1] (excess unlabeled MBP peptide, versus DMSO control) was “marked acceleration of peptide dissociation”. The “concentration range inducing peptide dissociation” value at DR2 [1] (release of high affinity peptides from DR2) is listed as “low micro-molar range”. For the same compound, the “CD4 T cell response following immunization” value in the data set on CD4 T cell response is given as “substantial enhancement”. Besides, in the data set with MGAR cells (1 μM MBP peptide plus compound versus 10 μM peptide alone), the “lowering of the dose of peptide required for equivalent staining / presentation” value is given as “approximately 10 fold”. The “presentation of MBP on MGAR cells (MK16 staining)” value in the data set with MGAR cells (100 μM compound, 1.7 μM MBP peptide, 30 minutes at 37° C.) is reported as “significantly increased”. Moreover, the “peptide association to empty DR2 molecules” value at empty DR2 molecules is “substantially accelerated peptide association to empty DR2 molecules”.

Take `O=C(Cc1c(C(=O)O)[nH]c2ccccc12)Nc1ccc(Cl)c(Cl)c1` [Compound (Ic)]: in the data set on MGAR cells, the “activity relative to Compound (Ia)” value is reported as “higher activities than Compound (Ia)”.
